Data published in US11484031B2, “Seed coating agent for preventing and treating wheat rot disease” (Institute of Plant Protection and Agro-products Safety, …, priority 2020, dated 2022).

Legend:
[1] = tested on: Gaeumannomycesgraminisvar. tritici; experiment: Mycelial growth assay (virulence test) of single agents and mixtures, Wadley method; format: cell-based; conditions: mycelial growth on medicated medium, 25° C.; ratio G:D = silothiamine:coumoxystrobin
Method: The bactericidal properties of silthiopham and coumoxystrobin are analyzed in detail. First, the EC50 ([…]) of the two single compounds of silthiostrobin and coumoxystrobin is determined. According to the EC50 of the two single drugs, the combination ratio of the two drugs is determined according to the Wadley method, and synergy coefficient SR value according to Wadley.
The test target is Gaeumannomycesgraminisvar. tritici, which causes wheat rot disease, but it is not limited to this. Silthiopham and coumoxystrobin are taken and prepared into a liquid plate about 15 ml per dish. At the edge of the pre-cultured colony, a 5 mm diameter hyphae block is prepared with a sterile puncher, and then transferred to different medium plates and cultured at 25° C. The test adopts the mycelial growth assay method, and prepares medicated medium according to different treatments. At the edge of the pre-cultured colony, a 5 mm diameter hyphae block is prepared with a sterile puncher, and then transferred to medium plates with different drug contents. […]
According to the Wadley method to evaluate the interaction of the mixture, the calculation formula is as follows: EC50(theoretical value)=(a+b)/(a/EC50a+b/EC50b), SR=EC50(theoretical value)/EC50(actual value). wherein, a and b are the content ratio of each component in the mixture, and the effect of mixing is analyzed by SR value. […]

wheat seeds = experiment: Seed soaking test: emergence rate and seedling stage of wheat seeds; format: in vivo, wheat variety "An Nong 0711"; conditions: seed soaking seed:drug solution=1:2, 20 minutes, after 40 days, compound sodium nitrophenolate at 0.05%, salicylic acid at 0.01%
Method: Seed initiator composition 1 with a measured content of 0.06% (compound sodium nitrophenolate 0.05%, salicylic acid 0.01%, the balance water) was diluted 10 times to form seed initiator composition 2 with a content of 0.006% (compound sodium nitrophenolate 0.005%, salicylic acid 0.001%, the balance water). The seed initiator composition 2 was treated with 0.05% compound sodium nitrophenolate, 0.01% salicylic acid and distilled water as a control. The effect on […] seed vigor was determined according to the above compositions. The experimental wheat variety was “An Nong 0711”, and the experiment was carried out in the experimental base of Anhui Academy of Agricultural Sciences. Seed soaking is carried out according to the weight ratio of seed:drug solution=1:2. After soaking for 20 minutes, sowing in the shade and drying in the shade, the seedling emergence rate, plant height, root length and fresh weight are calculated after 40 days.

SMILES	EC50 [1] [ppm]	Fresh weight (10 plants, g) (wheat seeds; 10 plants) [g]	Emergence rate (wheat seeds) [%]	Plant height (wheat seeds) [cm]	Root length (wheat seeds) [cm]
CCCCc1c(C)c2ccc(OCc3ccccc3/C(=C\OC)C(=O)OC)cc2oc1=O [Coumoxystrobin(D), (E)-2-(2-(3-n-butyl-4methyl-coumarin-7-yloxy)methylphenyl)-3-methoxy Methyl acrylate]	2.3127	–	–	–	–
O=C(O)c1ccccc1O [Salicylic acid]	–	1.28 ± 0.17	83.8	10.5 ± 1.7	4.8 ± 1.3
C=CCNC(=O)c1c([Si](C)(C)C)sc(C)c1C [Silothiamine(G), N-allyl-4,5-dimethyl-2-(trimethylsilyl) thiophene-3-carboxamide]	0.6893	–	–	–	–
